According to US10273313B2, “Multimeric mannosides, a process for preparing the same and their uses as a drug” (CENTRE NATIONAL DE LA RECHERCHE SCIENTIFIQUE, priority 2012, dated 2019):
Like-named read-outs stand apart in the source and are kept apart here.

Tests used:
[1] = test system: primary human peripheral venous blood monocyte-derived macrophages; experiment: Macrophage-mediated phagocytosis of aged PMN cells; format: cell-based; conditions: 10 nM
Text: To estimate the influence of mannose-based inhibitors on possible inhibition of phagocytosis we used primary human peripheral venous blood monocyte-derived macrophages and estimated their ability to phagocyte autologous and allogenic human blood-derived PMN cells, as described by us previous (Bilyy, R. O. et al. (2012) J Biol Chem 287, 496-503).
Primary human PMN and MoMa from healthy volunteers were used. Monocytes were isolated from peripheral blood by LymphoPrep® gradient according to manufacture's recommendations for isolation of PBMC fraction. Plastic-attached cells of PBMC fraction were then cultured for 7 days in the presence of GM-CSF (100 U/ml) and autologous serum (added at days 1, 3 and 5) to generate MoMa. After 7 days of differentiation, the MoMa population was tested. They typically contain >95% CD11b+ cells, >90% CD14+ cells and >85% CD89+ cells. Phagocytosis was assessed by pre-incubation of PMN (freshly isolated or aged for 24 h) with mannose-based inhibitor for 30 min at 37° C. at Ringer buffer. Cells were thoroughly washed three times with Ringer solution and incubated with human MoMa for 2 hours. Uningested PMN were analyzed by flow cytometry (for this reason cells were pre-stained with CFSE (Rodel, F. et al. (2005) Strahlentherapie and Onkologie: Organ der Deutschen Rontgengesellschaft . . . [et al] 181, 456-462)) or in the hemocytometric chamber using Zeiss AxioImager A1 microscope. The percentage of prey cells that had been bound to or taken up by MoMa (% of phagocytosis) was calculated.

[2] = target: T1, FimH (Escherichia coli, UniProt P08191); conditions: Surface Plasmon Resonance (SPR); read-out: Dissociation constant of the HM-FimH complex; cited from earlier work
[3] = target: T1, FimH; conditions: Isothermal Titration calorimetry (ITC); read-out: Dissociation constant of the HM-FimH complex; cited from earlier work
[4] = test system: E. coli strain UTI89 in the bladder of C3H/HeN mice; experiment: In vivo inhibition in the murine cystitis model (instillation with UTI89)
Protocol: In vivo inhibition was evaluated by instilling 1-4 together with the UTI89 strain via a catheter in the bladder of C3H/HeN mice. […] A group of ten animals was used for each concentration of antagonists. […] The animals were sacrificed at a 6 h post infection time.
A murine model of urinary tract infection was used to test the ability of the compounds to inhibit the colonization of UTI89 in the bladder [Hung C. S.; Dodson, K. W., Hultgren S. J. Nat. Protoc. 2009, 4, 1230-1243 and Wellens A.; Garofalo C.; Nguyen H.; Van Gerven N.; Slättegård R.; Hernalsteens, J.-P.; Wyns, L.; Oscarson, S.; De Greve H.; Hultgren S. J.; Bouckaert, J. PLoS ONE 2008, 3, e2040]. The solution with high concentration of compounds was added to the resuspension of UTI89 before given to the mice. The eight-week old Female C3H/HeN mice (Harlan, Horst, The Netherlands) were anesthetized and infected via transurethral catheterization of 10^7 CFU UTI89 in solution in PBS, or in PBS with the compound in the mentioned concentration. The mice were sacrificed at 24 hours post infection and the bladders were harvested, homogenized and resuspended in PBS. The serial dilutions were spot on LB medium agar plates. The bacterial load was determined by counting the CFU recovered from the bladder. The animal experiments were approved by the Ethical Committer for Animal Experiments of Vrije Universiteit Brussel and complied with all relevant national legislation and institutional policies. The Mann-Whitney test was applied for the comparison of the data obtained from the untreated group and inhibition group in GraphPad Prism version 5.1 and two tailed P value were shown (GraphPad software).
A limited number of papers described the in vivo efficiency of anti-adhesive mannosides to treat UTIs.

[5] = test system: AIEC LF82 bacteria in colonic loops of CEABAC10 mice expressing human CEACAM6; experiment: Adhesion assay in colonic loops of CEABAC10 mice; format: in vivo; conditions: dose of 0.1 μmol, 4 h incubation
Protocol: E. coli strain LF82 was isolated from a chronic ileal lesion of a patient with Crohn's disease (CD). Bacteria were grown routinely in Luria-Bertani (LB) broth overnight at 37° C.
The transgenic mouse model CEABAC10 expressing the human CEACAM6 protein is available in the UMR Inserm/Université d'Auvergne 1071 led by Professor Arlette Darfeuille-Michaud at Clermont-Ferrand. This model is particularly suitable to reproduce the abnormal colonization by AIEC bacteria through the interaction with CEACAM6 molecules that were observed abnormally expressed in the ileal mucosa of Crohn's disease patients.
Three colonic loops were realized in anesthetized CEABAC10 mice. A volume of 100 μl of a bacterial suspension containing 6×10^6 bacteria/mL with or without inhibitory compound was injected into the loops (here, compound 2, example 1) or heptyl-mannose at a concentration of 100 μM). After an incubation period of 4 h, mice were euthanized and each loop was longitudinally opened, extensively washed and homogenized to numerate adherent LF82 bacteria. Bacterial adhesion was expressed as percentages of residual adhesion (100% corresponds to the adhesion in absence of any compound).

[6] = test system: human Jurkat cells; experiment: Prevention of FimH-induced apoptosis of Jurkat cells (24 h)
Protocol: Eventually, we tested the ability of mannose-based inhibitors to prevent the induction of cell death of human Jurkat cells under the treatment with FimH. We cultures cells with the indicated compound for 24 h and counter percentage of viable (AnV−/Pi−), apoptotic (AnV+/Pi−) and necrotic cells (AnV+/PI+). […] 2. […] 3.
Apoptosis was induced by UV-B irradiation with 90 mJ/cm^2, apoptosis of human PMN cells was induced by 24 h aging. To quantify the rate of apoptosis, cells were analyzed by flow cytometry or fluorescent microscopy. Amongst other features, apoptosis is characterized by blebbing of the cellular membrane, leading to a decrease in the forward scatter (FSC) and an increase in the sideward scatter (SSC). For detection of phosphatidylserine (PS) exposure on the cell surface staining with FITC conjugated annexin V (Böhringer, Mannheim, Germany) in combination with propidium iodide (PI) (AxV/PI) was performed. 200.000 cells were stained for 30 minutes at 4° C. with 200 ng of AxV-FITC and 500 ng propidium iodide (PI) in 500 μl Ringer's solution [Nicoletti, Migliorati, Pagliacci, Grignani and Riccardi, A rapid and simple method for measuring thymocyte apoptosis by propidium iodide staining and flow cytometry. J Immunol Methods, 1991. 139.271-9]. The samples were immediately analyzed by flow cytometry of fluorescent microscopy.

T1 sequence (P08191 22-300): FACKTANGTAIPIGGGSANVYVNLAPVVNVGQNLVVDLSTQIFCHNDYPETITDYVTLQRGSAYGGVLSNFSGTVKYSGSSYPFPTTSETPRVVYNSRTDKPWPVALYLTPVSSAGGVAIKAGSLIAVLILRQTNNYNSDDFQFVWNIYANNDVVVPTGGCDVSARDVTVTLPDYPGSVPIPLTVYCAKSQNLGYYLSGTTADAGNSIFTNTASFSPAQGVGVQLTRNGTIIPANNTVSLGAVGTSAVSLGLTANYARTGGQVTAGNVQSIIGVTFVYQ

Compound | Phagocytosis rate [1] | Kd [2] | Kd [3] | Bacterial reduction compared with monovalent 1 and 3 at 1 mM ([4]; 10 μM (1.8 and 2.5 μg)) | Reduction of urinary tract infection ([4]; around 2 μg instilled in the mouse bladder, after 24 h) | Bacterial adhesion in colonic loops compared with no inhibitor [5] | Toxicity to Jurkat cells [6] | Prevention of apoptosis induction by FimH ([6]; 10 nM) | Prevention of apoptosis induction by FimH ([6]; 100 nM)
CCCCCCCO[C@H]1O[C@H](CO)[C@@H](O)[C@H](O)[C@@H]1O [HM, Heptylmannoside, reference compound] | significantly decreased phagocytosis rate | 5 nM | 7 nM |  |  |  |  |  | 
OCC1OC(OCCCCCCCOCc2cn(CC3OC4OC5C(Cn6cc(COCCCCCCCOC7OC(CO)C(O)C(O)C7O)nn6)OC(OC6C(Cn7cc(COCCCCCCCOC8OC(CO)C(O)C(O)C8O)nn7)OC(OC7C(Cn8cc(COCCCCCCCOC9OC(CO)C(O)C(O)C9O)nn8)OC(OC8C(Cn9cc(COCCCCCCCOC%10OC(CO)C(O)C(O)C%10O)nn9)OC(OC9C(Cn%10cc(COCCCCCCCOC%11OC(CO)C(O)C(O)C%11O)nn%10)OC(OC%10C(Cn%11cc(COCCCCCCCOC%12OC(CO)C(O)C(O)C%12O)nn%11)OC(OC3C(O)C4O)C(O)C%10O)C(O)C9O)C(O)C8O)C(O)C7O)C(O)C6O)C(O)C5O)nn2)C(O)C(O)C1O (stereo not shown) [Compound 2] | no phagocytosis decrease |  |  | equivalent bacterial reduction | significantly reduced the urinary tract infection | two-fold decreased adhesion | not toxic | effectively prevented apoptosis induction | effectively prevented apoptosis induction
